Assay results from patent US10189836B2, “Therapeutic compounds, compositions and methods of use thereof” (Genentech, Inc., priority 2015, dated 2019).
Each block holds one compound with its values, some of them ahead of it.

Key:
[1] = biological target: isolated recombinant JAK1 kinase domain (Homo sapiens (Human), UniProt P23458); assay: JAK1 enzyme assay (Caliper LabChip, Ki); assay type: biochemical; conditions: isolated recombinant JAK1 kinase domain, 1.5 nM enzyme, ATP 25 μM
[2] = biological target: isolated recombinant JAK2 kinase domain (Homo sapiens (Human), UniProt O60674); assay: JAK2 enzyme assay (Caliper LabChip, Ki); assay type: biochemical; conditions: isolated recombinant JAK2 kinase domain, 0.2 nM enzyme, ATP 25 μM
Sequence of isolated recombinant JAK2 kinase domain (O60674 849-1124): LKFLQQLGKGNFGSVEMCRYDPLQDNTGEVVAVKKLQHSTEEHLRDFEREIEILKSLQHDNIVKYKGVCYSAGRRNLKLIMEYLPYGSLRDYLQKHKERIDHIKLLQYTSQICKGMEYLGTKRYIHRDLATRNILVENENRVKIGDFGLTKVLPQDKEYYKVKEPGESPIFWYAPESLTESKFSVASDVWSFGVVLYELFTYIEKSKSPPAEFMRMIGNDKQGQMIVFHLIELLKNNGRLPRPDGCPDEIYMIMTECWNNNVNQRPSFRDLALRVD

Sequence of isolated recombinant JAK1 kinase domain (P23458 875-1153): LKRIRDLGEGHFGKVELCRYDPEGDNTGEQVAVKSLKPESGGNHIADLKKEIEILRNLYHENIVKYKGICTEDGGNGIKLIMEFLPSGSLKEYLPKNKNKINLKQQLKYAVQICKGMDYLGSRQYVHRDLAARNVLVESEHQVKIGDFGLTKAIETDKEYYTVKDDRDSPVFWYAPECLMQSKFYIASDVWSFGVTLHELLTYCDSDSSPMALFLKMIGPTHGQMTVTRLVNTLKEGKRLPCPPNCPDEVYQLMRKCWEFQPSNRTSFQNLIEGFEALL

Structure (SMILES): CN1CCN(C(=O)Cn2cc(Nc3nc4c(N5CC6CCC(C5)N6Cc5cccc(C#N)c5)cccn4n3)cn2)CC1 [Example 55, 3-[[3-[2-[[1-[2-(4-methylpiperazin-1-yl)-2-oxo-ethyl]pyrazol-4-yl]amino]-[1,2,4]triazolo[1,5-a]pyridin-8-yl]-3,8-diazabicyclo[3.2.1]octan-8-yl]methyl]benzonitrile]
Ki [1]: 1.9 nM
Ki [2]: 4 nM

Structure (SMILES): CN1CCN(C(=O)Cn2cc(Nc3nc4c(N5CC6CCC(C5)N6S(=O)(=O)Cc5cccc(Cl)c5)cccn4n3)cn2)CC1 [Example 165, 2-[4-[[8-[8-[(3-chlorophenyl)methylsulfonyl]-3,8-diazabicyclo[3.2.1]octan-3-yl]-[1,2,4]triazolo[1,5-a]pyridin-2-yl]amino]pyrazol-1-yl]-1-(4-methylpiperazin-1-yl)ethanone]
Ki [1]: 0.4 nM
Ki [2]: 0.8 nM

Structure (SMILES): CN1CCN(C(=O)Cn2cc(Nc3nc4c(N5CC6CCC(C5)N6C(=O)CC(N)C(F)(F)F)cccn4n3)cn2)CC1 (centres unmarked) [Example 102, 3-amino-4,4,4-trifluoro-1-[3-[2-[[1-[2-(4-methylpiperazin-1-yl)-2-oxo-ethyl]pyrazol-4-yl]amino]-[1,2,4]triazolo[1,5-a]pyridin-8-yl]-3,8-diazabicyclo[3.2.1]octan-8-yl]butan-1-one]
Ki [1]: 3.4 nM
Ki [2]: 7.9 nM

Structure (SMILES): CN1CCN(C(=O)Cn2cc(Nc3nc4c(N5CC6CCC(C5)N6S(=O)(=O)Cc5ccc(C(F)(F)F)cc5)cccn4n3)cn2)CC1 [Example 184, 1-(4-methylpiperazin-1-yl)-2-[4-[[8-[8-([4-(trifluoromethyl)phenyl]methylsulfonyl]-3,8-diazabicyclo[3.2.1]octan-3-yl]-[1,2,4]triazolo[1,5-a]pyridin-2-yl]amino]pyrazol-1-yl]ethanone]
Ki [1]: 1 nM
Ki [2]: 2.3 nM

Structure (SMILES): COC1(C(F)(F)F)CN(C(=O)N2C3CCC2CN(c2cccn4nc(Nc5cnn(CC(=O)N6CCN(C)CC6)c5)nc24)C3)C1 [Example 146, 2-[4-[[8-[8-[3-methoxy-3-(trifluoromethyl)azetidine-1-carbonyl]-3,8-diazabicyclo[3.2.1]octan-3-yl]-[1,2,4]triazolo[1,5-a]pyridin-2-yl]amino]pyrazol-1-yl]-1-(4-methylpiperazin-1-yl)ethanone]
Ki [1]: 6.1 nM
Ki [2]: 6.1 nM

Structure (SMILES): COC(=O)N1CCN(CC2CCN(C(=O)Cn3cc(Nc4nc5c(N6CC7CCC(C6)N7C(=O)CCC(F)(F)F)cccn5n4)cn3)CC2)CC1 [Example 79, methyl 4-[[1-[2-[4-[[8-[8-(4,4,4-trifluorobutanoyl)-3,8-diazabicyclo[3.2.1]octan-3-yl]-[1,2,4]triazolo[1,5-a]pyridin-2-yl]amino]pyrazol-1-yl]acetyl]-4-piperidyl]methyl]piperazine-1-carboxylate]
Ki [1]: 0.8 nM
Ki [2]: 1.6 nM

Structure (SMILES): CC(CC(=O)N1C2CCC1CN(c1cccn3nc(Nc4cnn(CC(=O)N5CCN(C)CC5)c4)nc13)C2)C(F)(F)F (centres unmarked) [Example 67, 4,4,4-trifluoro-3-methyl-1-[3-[2-[[1-[2-(4-methylpiperazin-1-yl)-2-oxo-ethyl]pyrazol-4-yl]amino]-[1,2,4]triazolo[1,5-a]pyridin-8-yl]-3,8-diazabicyclo[3.2.1]octan-8-yl]butan-1-one]
Ki [1]: 0.8 nM
Ki [2]: 1.4 nM

Structure (SMILES): CN1CCN(C(=O)Cn2cc(Nc3nc4c(N5CC6CCC(C5)N6S(=O)(=O)c5cccc(Cl)c5)cccn4n3)cn2)CC1 [Example 88, 2-[4-[[8-[8-(3-chlorophenyl)sulfonyl-3,8-diazabicyclo[3.2.1]octan-3-yl]-[1,2,4]triazolo[1,5-a]pyridin-2-yl]amino]pyrazol-1-yl]-1 - (4-methylpiperazin-1-yl)ethanone]
Ki [1]: 0.3 nM
Ki [2]: 0.3 nM

Structure (SMILES): CN1CCN(C(=O)Cn2cc(Nc3nc4c(N5CC6CCCC(C5)N6C(=O)C5CSC5)cccn4n3)cn2)CC1 [Example 96, 1-(4-methylpiperazin-1-yl)-2-[4-[[8-[9-(thietane-3-carbonyl)-3,9-diazabicyclo[3.3.1]nonan-3-yl]-[1,2,4]triazolo[1,5-a]pyridin-2-yl]amino]pyrazol-1-yl]ethanone]
Ki [1]: 0.4 nM
Ki [2]: 0.5 nM

Structure (SMILES): CN1CCN(C(=O)Cn2cc(Nc3nc4c(N5CC6CCC(C5)N6C(=O)C5CC5(F)F)cccn4n3)cn2)CC1 (centres unmarked) [Example 37, 2-[4-[[8-[8-(2,2-difluorocyclopropanecarbonyl)-3,8-diazabicyclo[3.2.1]octan-3-yl]-[1,2,4]triazolo[1,5-a]pyridin-2-yl]amino]pyrazol-1-yl]-1-(4-methylpiperazin-1-yl)ethanone]
Ki [1]: 1.3 nM
Ki [2]: 1.8 nM

Structure (SMILES): CN1CCN(C(=O)Cn2cc(Nc3nc4c(N5CC6CCCC(C5)N6C(=O)N5CC(C(F)(F)F)C5)cccn4n3)cn2)CC1 [Example 122, 1-(4-methylpiperazin-1-yl)-2-[4-[[8-[9-[3-(trifluoromethyl)azetidine-1-carbonyl]-3,9-diazabicyclo[3.3.1]nonan-3-yl]-[1,2,4]triazolo[1,5-a]pyridin-2-yl]amino]pyrazol-1-yl]ethanone]
Ki [1]: 0.4 nM
Ki [2]: 0.3 nM

Structure (SMILES): N#CC1(CNC2CCN(C(=O)Cn3cc(Nc4nc5c(N6CC7CCC(C6)N7C(=O)N6CC(C(F)(F)F)C6)cccn5n4)cn3)CC2)CC1 [Example 119, 1-[[[1-[2-[4-[[8-[8-[3-(trifluoromethyl)azetidine-1-carbonyl]-3,8-diazabicyclo[3.2.1]octan-3-yl]-[1,2,4]triazolo[1,5-a]pyridin-2-yl]amino]pyrazol-1-yl]acetyl]-4-piperidyl]amino]methyl] cyclopropanecarbonitrile]
Ki [1]: 0.8 nM
Ki [2]: 0.8 nM

Structure (SMILES): CN1CCN(C(=O)Cn2cc(Nc3nc4c(N5CC6CCC(C5)N6S(=O)(=O)c5ccccc5C#N)cccn4n3)cn2)CC1 [Example 147, 2-[[3-[2-[[1-[2-(4-methylpiperazin-1-yl)-2-oxo-ethyl]pyrazol-4-yl]amino]-[1,2,4]triazolo[1,5-a]pyridin-8-yl]-3,8-diazabicyclo[3.2.1]octan-8-yl]sulfonyl]benzonitrile]
Ki [1]: 0.4 nM
Ki [2]: 0.3 nM

Structure (SMILES): CC(C(=O)N1CCN(C)CC1)n1cc(Nc2nc3c(N4CC5CCC(C4)N5C(=O)CCC(F)(F)F)cccn3n2)cn1 (centres unmarked) [Example 103, 4,4,4-trifluoro-1-[3-[2-[[1-[1-methyl-2-(4-methylpiperazin-1-yl)-2-oxo-ethyl]pyrazol-4-yl]amino]-[1,2,4]triazolo[1,5-a]pyridin-8-yl]-3,8-diazabicyclo[3.2.1]octan-8-yl]butan-1-one]
Ki [1]: 1.5 nM
Ki [2]: 1.7 nM

Structure (SMILES): CN1CCN(C(=O)Cn2cc(Nc3nc4c(N5CC6CCC(C5)N6C(=O)c5cccc(CC#N)c5)cccn4n3)cn2)CC1 [Example 69, 2-[3-[3-[2-[[1-[2-(4-methylpiperazin-1-yl)-2-oxo-ethyl]pyrazol-4-yl]amino]-[1,2,4]triazolo[1,5-a]pyridin-8-yl]-3,8-diazabicyclo[3.2.1]octane-8-carbonyl]phenyl] acetonitrile]
Ki [1]: 2.3 nM
Ki [2]: 9.3 nM

Structure (SMILES): CN1CCN(C(=O)Cn2cc(Nc3nc4c(N5CC6CCC(C5)N6C(=O)CC5CC(F)(F)C5(F)F)cccn4n3)cn2)CC1 (centres unmarked) [Example 91, 1-[3-[2-[[1-[2-(4-methylpiperazin-1-yl)-2-oxo-ethyl]pyrazol-4-yl]amino]-[1,2,4]triazolo[1,5-a]alpyridin-8-yl]-3,8-diazabicyclo[3.2.1]octan-8-yl]-2(2,2,3,3-tetrafluorocyclobutyl) ethanone]
Ki [1]: 0.8 nM
Ki [2]: 0.9 nM

Ki [1]: 0.4 nM
Ki [2]: 0.7 nM
Structure (SMILES): CN1CCN(C(=O)Cn2cc(Nc3nc4c(N5C[C@H]6CC[C@@H](C5)[C@H]6OCc5cccc(CO)c5)cccn4n3)cn2)CC1 [Example 195, 1-(4-methylpiperazin-1-yl)-2-[4-[[8-[rac-(1S,5R)-8-[[3-(hydroxymethyl)phenyl]methoxy]-3-azabicyclo[3.2.1]octan-3-yl]-[1,2,4]triazolo[1,5-a]pyridin-2-yl]amino]pyrazol-1-yl]ethanone]

Structure (SMILES): CN1CCN(C(=O)Cn2cc(Nc3nc4c(N5CC6CCC(C5)N6S(=O)(=O)c5ccc(C(F)(F)F)cc5)cccn4n3)cn2)CC1 [Example 135, 1-(4-methylpiperazin-1-yl)-2-[4-[[8-[8-(4-(trifluoromethyl)phenyl]sulfonyl-3,8-diazabicyclo[3.2.1]octan-3-yl]-[1,2,4]triazolo[1,5-a]pyridin-2-yl]amino]pyrazol-1-yl]ethanone]
Ki [1]: 0.2 nM
Ki [2]: 0.4 nM

Ki [1]: 18.3 nM
Ki [2]: 24.2 nM
Structure (SMILES): CCc1cnn([C@@]2(CC#N)[C@@H]3CC[C@H]2CN(c2cccn4nc(Nc5cnn(CC(=O)N6CCN(C)CC6)c5)nc24)C3)c1 [Example 117, 2-[(1R,5S)-8-(4-ethylpyrazol-1-yl)-3-[2-[[1-[2-(4-methylpiperazin-1-yl)-2-oxo-ethyl]pyrazol-4-yl]amino]-[1,2,4]triazolo[1,5-a]pyridin-8-yl]-3-azabicyclo[3.2.1]octan-8-yl]acetonitrile]

Structure (SMILES): CC(C(=O)N1CCN(C)CC1)n1cc(Nc2nc3c(N4CC5CCCC(C4)N5C(=O)CCC(F)(F)F)cccn3n2)cn1 (centres unmarked) [Example 106, 4,4,4-trifluoro-1-[3-[2-[[1-[1-methyl-2-(4-methylpiperazin-1-yl)-2-oxo-ethyl]pyrazol-4-yl]amino]-[1,2,4]triazolo[1,5-a]pyridin-8-yl]-3,9-diazabicyclo[3.3.1]nonan-9-yl]butan-1-one]
Ki [1]: 1.6 nM
Ki [2]: 0.7 nM

Structure (SMILES): CN1CCN(C(=O)Cn2cc(Nc3nc4c(N5CC6CCC(C5)N6C(=O)c5cncs5)cccn4n3)cn2)CC1 [Example 78, 1-(4-methylpiperazin-1-yl)-2-[4-[[8-[8-(thiazole-5-carbonyl)-3,8-diazabicyclo[3.2.1]octan-3-yl]-[1,2,4]triazolo[1,5-a]pyridin-2-yl]amino]pyrazol-1-yl]ethanone]
Ki [1]: 0.8 nM
Ki [2]: 1.3 nM

Structure (SMILES): O=C(Cn1cc(Nc2nc3c(N4CC5CCC(C4)N5C(=O)[C@H]4C[C@@H](C(F)(F)F)C4)cccn3n2)cn1)N1CCN(C2CSC2)CC1 [Example 82]
Ki [1]: 0.4 nM
Ki [2]: 0.3 nM
